Where two headings read alike, the source gives them in different places.
How the values were obtained:
METTL3/14 = target: T1, METTL3/14 (Homo sapiens, UniProt Q86U44); assay: METTL3/14 methyltransferase assay (METTL3_14 RFMS, RapidFire mass spectrometry); type: biochemical; conditions: read-out: METTL3_14 RFMS IC50;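 note: recombinant His-tagged METTL3 with FLAG-tagged METTL14 from baculovirus, SAH product quantified by mass spectrometry against isotope-labelled internal standards, 60 min at room temperature, scaled between no-RNA and DMSO-only wells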
T1 construct: The enzyme used was full-length his-tagged METTL3; His; made in house
T1 sequence (Q86U44 whole entry): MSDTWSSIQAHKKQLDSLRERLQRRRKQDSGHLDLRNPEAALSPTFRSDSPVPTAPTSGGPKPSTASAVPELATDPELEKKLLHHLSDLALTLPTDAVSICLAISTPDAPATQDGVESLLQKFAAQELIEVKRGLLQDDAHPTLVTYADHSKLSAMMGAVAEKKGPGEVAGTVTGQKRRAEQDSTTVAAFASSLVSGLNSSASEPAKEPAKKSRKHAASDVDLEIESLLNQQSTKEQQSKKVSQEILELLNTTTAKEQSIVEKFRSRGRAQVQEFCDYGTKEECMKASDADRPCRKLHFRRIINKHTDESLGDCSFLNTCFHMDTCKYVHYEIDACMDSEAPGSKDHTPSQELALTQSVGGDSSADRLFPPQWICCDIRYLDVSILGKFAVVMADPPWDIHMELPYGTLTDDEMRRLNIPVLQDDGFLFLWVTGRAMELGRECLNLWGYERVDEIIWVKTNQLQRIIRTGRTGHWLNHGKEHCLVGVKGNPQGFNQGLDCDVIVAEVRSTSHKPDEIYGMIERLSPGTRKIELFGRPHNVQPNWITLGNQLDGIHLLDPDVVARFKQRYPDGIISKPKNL
T1 sequence (Q9HCE5 whole entry partner): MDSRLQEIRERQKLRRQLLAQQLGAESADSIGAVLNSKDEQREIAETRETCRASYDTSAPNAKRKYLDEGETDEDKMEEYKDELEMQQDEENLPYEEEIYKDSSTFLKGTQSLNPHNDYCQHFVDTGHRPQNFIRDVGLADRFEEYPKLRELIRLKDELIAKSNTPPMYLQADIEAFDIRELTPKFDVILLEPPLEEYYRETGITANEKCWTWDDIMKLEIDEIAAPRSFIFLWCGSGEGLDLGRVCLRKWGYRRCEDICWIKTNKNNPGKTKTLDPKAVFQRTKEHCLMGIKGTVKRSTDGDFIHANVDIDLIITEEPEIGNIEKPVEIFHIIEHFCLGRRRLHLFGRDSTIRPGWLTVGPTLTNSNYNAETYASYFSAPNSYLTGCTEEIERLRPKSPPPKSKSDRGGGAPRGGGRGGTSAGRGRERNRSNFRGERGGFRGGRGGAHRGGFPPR
Procedure: The enzyme used was full-length his-tagged METTL3 co-expressed with full length FLAG-tagged METTL14 in a baculovirus expression system. […] After termination, plates were sealed, centrifuged and stored at 4° C. until analysis. […] Mass Spectrometry Analysis RNA methyltransferase activity was measured label free using the RapidFireTM mass spectrometry (RF/MS) platform. Stopped and stable assay plates were analyzed on the Agilent RF300 integrated autosampler/solid-phase extraction (SPE) system coupled to an ABSciex 4000 mass spectrometer for the generation of the product S-adenosyl homocysteine (SAH) and normalized to the ratio of signal of the two internal product standards, respectively. Solvent A was water containing 0.1% (v/v) TCA. Solvent B was acetonitrile/0.1% ammonium acetate (8:2, v/v). More specifically, plates were centrifuged at 4350 rpm for 10 min, samples were aspirated under vacuum for 600 ms, then loaded onto a C18 solid-phase extraction cartridge and washed for 3 s with solvent A at a flow rate of 1.5 mL/min. Retained product and internal standards were eluted with solvent B at a flow rate of 1 mL/min for 3 s and finally the cartridge was reequilibrated with solvent A for 500 ms.

MOLM-13 cells = assay: MOLM13 CTG - analysis of cell proliferation (Cell Titre Glo); type: cell-based; conditions: Homo sapiens, geometric mean, read-out: CTG MOLM13 cells IC50 GEOMEAN
Procedure: MOLM-13 or MOLM-14 cells were plated, in suspension, in 24 well tissue culture plates at final concentration of 200,000/ml, with or without 50 ng/ml IFNγ. […] Cells were incubated for 4 days at 37° C. at which point 600 μl of cell suspension was removed for Mass spectrometry analysis of m6A. 600 μl of fresh media containing the appropriate concentration of METTL3 inhibitor/IFNγ was added to remaining cell suspensions. Cells where then cultured for a further 7 days, cell suspension was sampled for analysis of proliferation and Cell surface markers periodically.
At regular time points (4, 5, 6 &7) days cells were mixed to maintain a homogenous cell suspension. 25 μl of this cell suspension was removed and added to a white 384 well plate, 25 μl of Cell Titre Glo reagent (Promega) was added, and incubated for 10 mins at room temperature before measurement of luminescence intensity, as per the manufacturers instructions.

Caov-3 cells = assay: Caov3 CTG assay - proliferation assay; type: cell-based; conditions: Homo sapiens, 120 hours treatment, 30 μM top concentration, CellTiter-Glo, geometric mean, read-out: CTG Caov3 cells IC50 GEOMEAN
Procedure: Upon treatment, Coav-3 cells were incubated for 10 min at RT with the CellTiter-Glo reagent (G7571, Promega). Measurement of the luminescence signal was performed on a microplate reader (Ensight, PerkinElmer).

[1] = 5 nM METTL3/14, 0.2 μM RNA substrate, 0.5 μM SAM, lower limit of the assay IC50=5 nM, Compounds 266-351

Row | SMILES | IC50 (METTL3/14; [1]) [µM] | IC50 (MOLM-13 cells) [µM] | IC50 (METTL3/14; 5 nM METTL3/14, 0.2 μM RNA substrate, 0.5 μM SAM, lower limit of the assay IC50=5 nM, Compounds 63-265) [µM] | IC50 (METTL3/14) [µM] | IC50 (Caov-3 cells) [µM]
1 | O=C(NCc1cn2cc(CNCC34CC(F)(C3)C4)ccc2n1)c1cc(=O)n2ccccc2n1 [Compound 276, N-[[6-[[(3-fluoro-1-bicyclo[1.1.1]pentanyl)methylamino]methyl]imidazo[1,2-a]pyridin-2-yl]methyl]-4-oxo-pyrido[1,2-a]pyrimidine-2-carboxamide] | 0.0061 | 0.657 |  |  | 0.248
2 | O=C(NCc1cn2cc(CNCC3CCC3)ccc2n1)c1cc(=O)n2ccccc2n1 [Example 212, N-[[6-[(cyclobutylmethylamino)methyl]imidazo[1,2-a]pyridin-2-yl]methyl]-4-oxo-pyrido[1,2-a]pyrimidine-2-carboxamide] |  | 1.82 | 0.00625 |  | 0.32
3 | COc1ccc2[nH]ncc2c1-c1cn(Cc2cn3cc(CNCC4CCC4)ccc3n2)nn1 [Example 271, N-(cyclobutylmethyl)-1-[2-[[4-(5-methoxy-1H-indazol-4-yl)triazol-1-yl]methyl]imidazo[1,2-a]pyridin-6-yl]methanamine] | 0.0061 | 1.17 |  |  | 0.558
4 | CN(C)C(=O)c1cc(-c2cn(Cc3cn4cc(CNCC5CCC5)ccc4n3)nn2)c2cn[nH]c2c1 [Example 299, 4-[1-[[6-[(cyclobutylmethylamino)methyl]imidazo[1,2-a]pyridin-2-yl]methyl]triazol-4-yl]-N,N-dimethyl-1H-indazole-6-carboxamide] | 0.112 | ≥ 30 |  |  | 
5 | O=C(c1cc(-c2cn(Cc3cn4cc(CNCC5CCC5)ccc4n3)nn2)c2cn[nH]c2c1)N1CCOCC1 [Example 300, [4-[1-[[6-[(cyclobutylmethylamino)methyl]imidazo[1,2-a]pyridin-2-yl]methyl]triazol-4-yl]-1H-indazol-6-yl]-morpholino-methanone] | 0.511 | ≥ 30 |  |  | 
6 | Fc1ccc(-c2cn(Cc3cn4cc(CNCC5CCC5)ccc4n3)nn2)c2cn[nH]c12 [Example 305, N-(cyclobutylmethyl)-1-[2-[[4-(7-fluoro-1H-indazol-4-yl)triazol-1-yl]methyl]imidazo[1,2-a]pyridin-6-yl]methanamine] | 0.00601 | 1.83 |  |  | 
7 | Fc1ccc(-c2cn(Cc3cn4cc(CNCC5CCCCC5)ccc4n3)nn2)c2cn[nH]c12 [Example 307, N-(cyclohexylmethyl)-1-[2-[[4-(7-fluoro-1H-indazol-4-yl)triazol-1-yl]methyl]imidazo[1,2-a]pyridin-6-yl]methanamine] | 0.00672 | 3.68 |  |  | 1.77
8 | c1cc2nc(Cn3cc(-c4cc(N5CCOCC5)cc5[nH]ncc45)nn3)cn2cc1CNCC1CCC1 [Example 311, N-(cyclobutylmethyl)-1-[2-[[4-(6-morpholino-1H-indazol-4-yl)triazol-1-yl]methyl]imidazo[1,2-a]pyridin-6-yl]methanamine] | 0.019 | 3.68 |  |  | 
9 | O=C(NCc1cn2cc(C(Cc3ccccc3)NCC3CCC3)ccc2n1)c1cc(=O)n2ccccc2n1 (centres unmarked) [Example 313, N-[[6-[1-(cyclobutylmethylamino)-2-phenyl-ethyl]imidazo[1,2-a]pyridin-2-yl]methyl]-4-oxo-pyrido[1,2-a]pyrimidine-2-carboxamide] | 0.0376 | 11.3 |  |  | 
10 | Clc1ccc(-c2cn(Cc3cn4cc(CNCC5CCC5)ccc4n3)nn2)c2cn[nH]c12 [Example 315, 1-[2-[[4-(7-chloro-1H-indazol-4-yl)triazol-1-yl]methyl]imidazo[1,2-a]pyridin-6-yl]-N-(cyclobutylmethyl)methanamine] | 0.0193 | 8.36 |  |  | 
11 | Fc1cc(-c2cn(Cc3cn4cc(CNCC5CCCCC5)ccc4n3)nn2)c2cn[nH]c2c1 [Example 320, N-(cyclohexylmethyl)-1-[2-[[4-(6-fluoro-1H-indazol-4-yl)triazol-1-yl]methyl]imidazo[1,2-a]pyridin-6-yl]methanamine] | 0.00616 | 2.76 |  |  | 
12 | O=C(NCc1cn2cc(CNCC3CCC3)ccc2n1)c1cccc2[nH]ncc12 [Example 322, N-[[6-[(cyclobutylmethylamino)methyl]imidazo[1,2-a]pyridin-2-yl]methyl]-1H-indazole-4-carboxamide] | 0.0325 | 11 |  |  | 
13 | c1cc2[nH]ncc2c(-c2cn(Cc3cn4cc(CNCC5CCC5)ccc4n3)nn2)n1 [Example 324, N-(cyclobutylmethyl)-1-[2-[[4-(1H-pyrazolo[4,3-c]pyridin-4-yl)triazol-1-yl]methyl]imidazo[1,2-a]pyridin-6-yl]methanamine] | 0.00886 | 3.28 |  |  | 
14 | c1cc2[nH]ncc2c(-c2cn(Cc3cn4cc(CNCC5CCCCC5)ccc4n3)nn2)n1 [Example 325, N-(cyclohexylmethyl)-1-[2-[[4-(1H-pyrazolo[4,3-c]pyridin-4-yl)triazol-1-yl]methyl]imidazo[1,2-a]pyridin-6-yl]methanamine] | 0.0145 | 7.5 |  |  | 
15 | c1cc(-c2cn(Cc3cn4cc(CNCC5CCC5)ccc4n3)nn2)c2cn[nH]c2c1 [Example 327, N-(cyclobutylmethyl)-1-[2-[[4-(1H-indazol-4-yl)triazol-1-yl]methyl]imidazo[1,2-a]pyridin-6-yl]methanamine] | 0.00578 | 1.62 |  |  | 0.572
16 | N#CCC(NCC1CCC1)c1ccc2nc(CNC(=O)c3cc(=O)n4ccccc4n3)cn2c1 (centres unmarked) [Example 330, N-[[6-[2-cyano-1-(cyclobutylmethylamino)ethyl]imidazo[1,2-a]pyridin-2-yl]methyl]-4-oxo-pyrido[1,2-a]pyrimidine-2-carboxamide] | 0.202 | ≥ 30 |  |  | 
17 | FC1(F)CC(CNCc2ccc3nc(Cc4cn(-c5cccc6[nH]ncc56)nn4)cn3c2)C1 [Example 337, [(3,3-difluorocyclobutyl)methyl][(2-{[1-(1H-indazol-4-yl)-1H-1,2,3-triazol-4-yl]methyl}imidazo[1,2-a]pyridin-6-yl)methyl]amine] | 0.0163 | 5.17 |  |  | 3.21
18 | O=c1cc(-c2cn(Cc3cn4cc(CNCC5CCC5)ccc4n3)nn2)nc2ccccn12 [Example 342, 2-[1-[[6-[(cyclobutylmethylamino)methyl]imidazo[1,2-a]pyridin-2-yl]methyl]triazol-4-yl]pyrido[1,2-a]pyrimidin-4-one] | 0.0184 | 6.71 |  |  | 

Second part, led by results:

Row | IC50 (METTL3/14; [1]) [µM] | IC50 (MOLM-13 cells) [µM] | IC50 (METTL3/14; 5 nM METTL3/14, 0.2 μM RNA substrate, 0.5 μM SAM, lower limit of the assay IC50=5 nM, Compounds 63-265) [µM] | IC50 (METTL3/14) [µM] | SMILES | IC50 (Caov-3 cells) [µM]
19 | 0.00805 | 1.39 |  |  | COc1cc(-c2cn(Cc3cn4cc(CNCC5(O)CCC5)ccc4n3)nn2)c2cn[nH]c2c1 [Example 269, 1-[[[2-[[4-(6-methoxy-1H-indazol-4-yl)triazol-1-yl]methyl]imidazo[1,2-a]pyridin-6-yl]methylamino]methyl]cyclobutanol] | 0.692
20 |  | 0.431 |  | ≤ 0.00363 | COc1cc(-c2cn(Cc3cn4cc(CNCC5CCC5)ccc4n3)nn2)c2cn[nH]c2c1 [Example 270, N-(cyclobutylmethyl)-1-[2-[[4-(6-methoxy-1H-indazol-4-yl)triazol-1-yl]methyl]imidazo[1,2-a]pyridin-6-yl]methanamine] | 0.161
21 |  | 0.629 |  | ≤ 0.00435 | Clc1cc(-c2cn(Cc3cn4cc(CNCC5CCC5)ccc4n3)nn2)c2cn[nH]c2c1 [Example 302, 1-[2-[[4-(6-chloro-1H-indazol-4-yl)triazol-1-yl]methyl]imidazo[1,2-a]pyridin-6-yl]-N-(cyclobutylmethyl)methanamine] | 0.211
22 | 0.00592 | 1.44 |  |  | OC1(CNCc2ccc3nc(Cn4cc(-c5cc(Cl)cc6[nH]ncc56)nn4)cn3c2)CCC1 [Example 303, 1-[[[2-[[4-(6-chloro-1H-indazol-4-yl)triazol-1-yl]methyl]imidazo[1,2-a]pyridin-6-yl]methylamino]methyl]cyclobutanol] | 
23 | 0.00946 | 3.93 |  |  | OC1(CNCc2ccc3nc(Cn4cc(-c5ccc(F)c6[nH]ncc56)nn4)cn3c2)CCCCC1 [Example 306, 1-[[[2-[[4-(7-fluoro-1H-indazol-4-yl)triazol-1-yl]methyl]imidazo[1,2-a]pyridin-6-yl]methylamino]methyl]cyclohexanol] | 
24 | 0.0114 | 5.61 |  |  | OC1(CNCc2ccc3nc(Cn4cc(-c5ccc(F)c6[nH]ncc56)nn4)cn3c2)CCC1 [Example 308, 1-[[[2-[[4-(7-fluoro-1H-indazol-4-yl)triazol-1-yl]methyl]imidazo[1,2-a]pyridin-6-yl]methylamino]methyl]cyclobutanol] | 
25 | 0.00567 | 1.18 |  |  | Fc1cc(-c2cn(Cc3cn4cc(CNCC5CCC5)ccc4n3)nn2)c2cn[nH]c2c1 [Example 318, N-(cyclobutylmethyl)-1-[2-[[4-(6-fluoro-1H-indazol-4-yl)triazol-1-yl]methyl]imidazo[1,2-a]pyridin-6-yl]methanamine] | 
26 | 0.00784 | 4.38 |  |  | OC1(CNCc2ccc3nc(Cn4cc(-c5cc(F)cc6[nH]ncc56)nn4)cn3c2)CCC1 [Example 319, 1-[[[2-[[4-(6-fluoro-1H-indazol-4-yl)triazol-1-yl]methyl]imidazo[1,2-a]pyridin-6-yl]methylamino]methyl]cyclobutanol] | 
27 | 0.0766 | 10.7 |  |  | OC1(CNCc2ccc3nc(Cn4cc(-c5nccc6[nH]ncc56)nn4)cn3c2)CCC1 [Example 326, 1-[[[2-[[4-(1H-pyrazolo[4,3-c]pyridin-4-yl)triazol-1-yl]methyl]imidazo[1,2-a]pyridin-6-yl]methylamino]methyl]cyclobutanol] | 
28 | 0.00884 | 3.25 |  |  | OC1(CNCc2ccc3nc(Cn4cc(-c5cccc6[nH]ncc56)nn4)cn3c2)CCCCC1 [Example 328, 1-[[[2-[[4-(1H-indazol-4-yl)triazol-1-yl]methyl]imidazo[1,2-a]pyridin-6-yl]methylamino]methyl]cyclohexanol] | 

From US12358915B2, “METTL3 inhibitory compounds” (STORM THERAPEUTICS LTD., priority 2019, dated 2025)
